Several values for one entry are separate records, joined by “and”; a condition that tells them apart may be missing. Equal entries are not always repeated.
Assays:
[1] = Particle size and polydispersity index (PDI) of lipid nanoparticles by dynamic light scattering; format: physicochemical; conditions: LNP formulation prepared from the cationic lipid, 25° C.
Experimental: The particle size and polydispersity index (PDI) were determined by dynamic light scattering using Malvern laser particle size analyzer.
10 μL of the liposome solution was weighed, diluted to 1 mL with RNase-free deionized water, and added to the sample pool. Each sample was measured in triplicate. The measurement conditions were: […] scattering angle, and 25° C.

293T cells [2] = test: Fluorescent detection of Fluc-mRNA (cell transfection efficiency of LNP formulations); format: cell-based
Method in brief: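 Transfection read-out: IVIS imaging after […], 24 h after adding LNPs (lipid molar ratio 49:10:39.5:1.5 cationic/neutral/structured/polymer-lipid; […] Fluc-mRNA). Adherent 293T cells were seeded overnight at 10,000 per well beforehand.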

293T cells [3] = test: Cell survival rate determination (CCK-8); format: cell-based
Method in brief: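 Readout was CCK-8 absorbance (450 nm, 1 h) taken after a 24 h exposure of overnight-adhered 293T cells (10,000 per well, 96-well) to Lipofectamine 3000 or to LNPs carrying Fluc-mRNA, lipid molar ratio 49:10:39.5:1.5 cationic/neutral/structured/polymer-conjugated.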

female BALB/C mice = test: Live imaging in mice: protein expression of Fluc-mRNA delivered by LNP formulations; format: in vivo; conditions: for average radiation intensity, times that of ALC-0315: comparator ALC-0315; for average radiation intensity, times that of HHMA: comparator HHMA; for average radiation intensity, times that of SM-102: comparator SM-102; for expression of mRNA in mice, times that of YK-302: comparator YK-302; for expression amount, times that of YK-309: comparator YK-309; for expression amount, times that of YK-313: comparator YK-313; for expression amount, times that of YK-321: comparator YK-321; for average radiation intensity, times that of compound 21: comparator compound 21; for average radiation intensity, times that of compound 23: comparator compound 23
Method in brief: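 Female BALB/C mice (4-6 weeks, 17-19 g) received LNP-formulated Fluc-mRNA […] intramuscularly. At 6 h, 24 h, 48 h and 7 d, luciferase substrate given intraperitoneally, and after 5 min average radiance measured by IVIS whole-body imaging.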

liver = test: Distribution of liposomes in mice: protein expression in the liver (live imaging); format: in vivo; conditions: at 6 h, intramuscular injection
Method in brief: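 Female BALB/C mice (4–6 weeks, 17–19 g) received LNP carrying […] Fluc-mRNA intramuscularly. At 6 h, 24 h, 48 h and 7 d, the luciferase substrate was given intraperitoneally. After 5 min of free movement, average radiance was imaged with IVIS Spectrum.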

With CCCCCCCCCCCOC(=O)CCCCCN(CCCC(=O)OCCCC(CCCCCCCCCC)CCCCCCCCCC)C[C@H](O)CN(CC)CCO [YK-310] the “PDI (%)” value [1] was 12.4%, the “Particle size (nm)” value [1] was 192 nm and the “Relative light unit (RLU)” value (293T cells [2]; LNP formulation of Fluc-mRNA, 96-well plate, 24 hours) was 25797040 RLU. The “Multiples (YK-305)” value (293T cells [2]; RLU of YK-305 / RLU of the lipid of the line) was 1.06, the “Multiples (YK-310)” value (293T cells [2]; RLU of YK-310 / RLU of the lipid of the line) was 1.00 and the “Multiples (YK-312)” value (293T cells [2]; RLU of YK-312 / RLU of the lipid of the line) was 0.78. For the same compound, the “Multiples (YK-318)” value (293T cells [2]; RLU of YK-318 / RLU of the lipid of the line, Tables 5, 7, 11) was 0.43, the “Multiples (YK-319)” value (293T cells [2]; RLU of YK-319 / RLU of the lipid of the line, Tables 5, 7, 11) was 0.95 and the “Ratio relative to SM-102” value (293T cells [2]; RLU of the lipid / RLU of SM-102, times that of SM-102) was 16.08. The “cell transfection efficiency, times that of ALC-0315” value (293T cells [2]; comparator ALC-0315) was 12.69 times, the “cell transfection efficiency, times that of HHMA” value (293T cells [2]; comparator HHMA) was 12.86 times and the “cell transfection efficiency, times that of Lipofectamine 3000” value (293T cells [2]; comparator Lipofectamine 3000) was 21.76 times. The “cell transfection efficiency, times that of YK-009” value (293T cells [2]; comparator YK-009) was 5.04 times, the “cell transfection efficiency, times that of YK-301” value (293T cells [2]; comparator YK-301) was 30.62 times and the “cell transfection efficiency, times that of YK-302” value (293T cells [2]; comparator YK-302) was 928.69 times. The “cell transfection efficiency, times that of YK-303” value (293T cells [2]; comparator YK-303) was 41.19 times, the “cell transfection efficiency, times that of YK-304” value (293T cells [2]; comparator YK-304) was ~1200 times and 1247.08 times and the “cell transfection efficiency, times that of YK-306” value (293T cells [2]; comparator YK-306) was 11.74 times. The “cell transfection efficiency, times that of YK-307” value (293T cells [2]; comparator YK-307) was 5.66 times, the “cell transfection efficiency, times that of YK-308” value (293T cells [2]; comparator YK-308) was 5.12 times and the “cell transfection efficiency, times that of YK-309” value (293T cells [2]; comparator YK-309) was ~200 times and 205.77 times. For the same compound, the “cell transfection efficiency, times that of YK-311” value (293T cells [2]; comparator YK-311) was 13.14 times, the “cell transfection efficiency, times that of YK-313” value (293T cells [2]; comparator YK-313) was 29.77 times and the “cell transfection efficiency, times that of YK-314” value (293T cells [2]; comparator YK-314) was 47.12 times. The “cell transfection efficiency, times that of YK-315” value (293T cells [2]; comparator YK-315) was 16.25 times, the “cell transfection efficiency, times that of YK-316” value (293T cells [2]; comparator YK-316) was 5.36 times and the “cell transfection efficiency, times that of YK-317” value (293T cells [2]; comparator YK-317) was 7.16 times. For the same compound, the “cell transfection efficiency, times that of YK-320” value (293T cells [2]; comparator YK-320) was 9.54 times, the “cell transfection efficiency, times that of YK-321” value (293T cells [2]; comparator YK-321) was 18.38 times and the “cell transfection efficiency, times that of compound 21” value (293T cells [2]; comparator compound 21) was 18.01 times. For the same compound, the “cell transfection efficiency, times that of compound 23” value (293T cells [2]; comparator compound 23) was 19.02 times, the “Cell survival rate (%)” value (293T cells [3]; LNP formulation of Fluc-mRNA, 24 hours, CCK-8) was 82.10% and the “cell survival rate higher than ALC-0315” value (293T cells [3]; difference of survival rates, comparator ALC-0315) was 31.07% and ~30%. The “cell survival rate higher than HHMA” value (293T cells [3]; difference of survival rates, comparator HHMA) was 15.63% and ~15%, the “cell survival rate higher than Lipofectamine 3000” value (293T cells [3]; difference of survival rates, comparator Lipofectamine 3000) was 57.09% and the “cell survival rate higher than SM-102” value (293T cells [3]; difference of survival rates, comparator SM-102) was 12.65% and ~12%. For the same compound, the “cell survival rate higher than YK-301” value (293T cells [3]; difference of survival rates, comparator YK-301) was 29.14%, the “cell survival rate higher than YK-302” value (293T cells [3]; difference of survival rates, comparator YK-302) was 65.67% and ~65% and ~50% and the “cell survival rate higher than YK-303” value (293T cells [3]; difference of survival rates, comparator YK-303) was 18.78%. The “cell survival rate higher than YK-304” value (293T cells [3]; difference of survival rates, comparator YK-304) was 47.94%, the “cell survival rate higher than YK-306” value (293T cells [3]; difference of survival rates, comparator YK-306) was 39.91% and the “cell survival rate higher than YK-307” value (293T cells [3]; difference of survival rates, comparator YK-307) was 20.96%. The “cell survival rate higher than YK-308” value (293T cells [3]; difference of survival rates, comparator YK-308) was 11.11%, the “cell survival rate higher than YK-309” value (293T cells [3]; difference of survival rates, comparator YK-309) was 50.49% and the “cell survival rate higher than YK-311” value (293T cells [3]; difference of survival rates, comparator YK-311) was 12.04%. For the same compound, the “cell survival rate higher than YK-313” value (293T cells [3]; difference of survival rates, comparator YK-313) was 13.17%, the “cell survival rate higher than YK-314” value (293T cells [3]; difference of survival rates, comparator YK-314) was 14.22% and the “cell survival rate higher than YK-315” value (293T cells [3]; difference of survival rates, comparator YK-315) was 10.82%. The “cell survival rate higher than YK-316” value (293T cells [3]; difference of survival rates, comparator YK-316) was 11.57%, the “cell survival rate higher than YK-317” value (293T cells [3]; difference of survival rates, comparator YK-317) was 22.92% and ~20% and the “cell survival rate higher than YK-320” value (293T cells [3]; difference of survival rates, comparator YK-320) was 11.03%. The “cell survival rate higher than YK-321” value (293T cells [3]; difference of survival rates, comparator YK-321) was 9.76%, the “cell survival rate higher than compound 21” value (293T cells [3]; difference of survival rates, comparator compound 21) was 11.89% and the “cell survival rate higher than compound 23” value (293T cells [3]; difference of survival rates, comparator compound 23) was 10.60%. For the same compound, the “average radiation intensity, times that of ALC-0315” value (female BALB/C mice; 6 h) was 10.56 times, the “average radiation intensity, times that of HHMA” value (female BALB/C mice; 6 h) was 14.02 times and the “average radiation intensity, times that of SM-102” value (female BALB/C mice; 6 h) was 13.01 times. The “expression of mRNA in mice, times that of YK-302” value (“expression of mRNA in mice” for short) (female BALB/C mice; 6 h) was 625.87 times, the “expression amount, times that of YK-309” value (female BALB/C mice; 6 h) was 138.93 times and the “expression amount, times that of YK-313” value (female BALB/C mice; 6 h) was 20.64 times. For the same compound, the “expression amount, times that of YK-321” value (female BALB/C mice; 6 h) was 17.70 times, the “average radiation intensity, times that of compound 21” value (female BALB/C mice; 6 h) was 14.95 times and the “average radiation intensity, times that of compound 23” value (female BALB/C mice; 6 h) was 15.48 times. For the same compound, the average radiation intensity (female BALB/C mice; 6 h after intramuscular injection) was 9125240, the “average radiation intensity, times that of ALC-0315” value (female BALB/C mice; 24 h) was 15.50 times and the “average radiation intensity, times that of HHMA” value (female BALB/C mice; 24 h) was 24.61 times. For the same compound, the “average radiation intensity, times that of SM-102” value (female BALB/C mice; 24 h) was 24.51 times, the “expression of mRNA in mice” value (female BALB/C mice; 24 h) was 746.29 times and the “expression amount, times that of YK-309” value (female BALB/C mice; 24 h) was 175.52 times. The “expression amount, times that of YK-313” value (female BALB/C mice; 24 h) was 28.27 times, the “expression amount, times that of YK-321” value (female BALB/C mice; 24 h) was 29.16 times and ~29 times and the “average radiation intensity, times that of compound 21” value (female BALB/C mice; 24 h) was 26.88 times. For the same compound, the “average radiation intensity, times that of compound 23” value (female BALB/C mice; 24 h) was 28.24 times, the average radiation intensity (female BALB/C mice; 24 h after intramuscular injection) was 2952310 and the “average radiation intensity, times that of ALC-0315” value (female BALB/C mice; 48 h) was 24.64 times. For the same compound, the “average radiation intensity, times that of HHMA” value (female BALB/C mice; 48 h) was 30.13 times, the “average radiation intensity, times that of SM-102” value (female BALB/C mice; 48 h) was 30.14 times and the “expression of mRNA in mice” value (female BALB/C mice; 48 h) was 957.07 times. For the same compound, the “expression amount, times that of YK-309” value (female BALB/C mice; 48 h) was 149.75 times, the “expression amount, times that of YK-313” value (female BALB/C mice; 48 h) was 38.38 times and the “expression amount, times that of YK-321” value (female BALB/C mice; 48 h) was 26.83 times. For the same compound, the “average radiation intensity, times that of compound 21” value (female BALB/C mice; 48 h) was 31.67 times, the “average radiation intensity, times that of compound 23” value (female BALB/C mice; 48 h) was 29.62 times and the average radiation intensity (female BALB/C mice; 48 h after intramuscular injection) was 981000. For the same compound, the “average radiation intensity, times that of ALC-0315” value (female BALB/C mice; 7 d) was 16.67 times, the “average radiation intensity, times that of HHMA” value (female BALB/C mice; 7 d) was 20.01 times and the “average radiation intensity, times that of SM-102” value (female BALB/C mice; 7 d) was 17.74 times. For the same compound, the “expression of mRNA in mice” value (female BALB/C mice; 7 d) was 305.89 times, the “expression amount, times that of YK-309” value (female BALB/C mice; 7 d) was 93.52 times and the “expression amount, times that of YK-313” value (female BALB/C mice; 7 d) was 36.31 times. The “expression amount, times that of YK-321” value (female BALB/C mice; 7 d) was 17.84 times and ~17 times, the “average radiation intensity, times that of compound 21” value (female BALB/C mice; 7 d) was 18.23 times and the “average radiation intensity, times that of compound 23” value (female BALB/C mice; 7 d) was 18.82 times. The average radiation intensity (female BALB/C mice; 7 d after intramuscular injection) was 117462 and the “protein expression in the liver” value (liver) was “no protein expression in the liver”.

— patent US20260007613A1, “LONG-ACTING LOW-TOXICITY NOVEL CATIONIC LIPID COMPOUNDS AND COMPOSITION THEREOF” (BEIJING YOUCAREKECHUANG PHARMACEUTICAL TECHNOLOGY CO., LTD., priority 2023, published 2026)
